Laboratory results taken from publication PMC8217170, “Phase Ib dose-escalation study of the hypoxia-modifier Myo-inositol trispyrophosphate in patients with hepatopancreatobiliary tumors” (Nature Communications, 2021).
“And” between values parts separate entries of the source, which are not always exact repeats. Identical values can stand only once.

Experiments:
Format in all cases: in vivo, human
[1] = tested on: target lesions of PDAC, CRLM, CCA and HCC; test: Morphological radiological response, MRI, RECIST 1.1; set-up: key to RECIST1.1 response after ITPP / RECIST1.1 response after chemotherapy / RespITPP_Recist / RespChemo_Recist: CR = complete response; PR = partial response; SD = stable disease; PD = progressive disease; Lesion1_pre_DM / Lesion1_post_DM / Lesion1_chemo_DM / Lesion2_pre_DM / Lesion2_post_DM / Lesion2_chemo_DM / Lesion3_pre_DM / Lesion3_post_DM / Lesion3_chemo_DM / Lesion4_pre_DM / Lesion4_post_DM / Lesion4_chemo_DM / Lesion5_pre_DM / Lesion5_post_DM / Lesion5_chemo_DM: unit not given here; settings: for RECIST1.1 response after chemotherapy: chemotherapy subsequent to ITPP; for RespITPP_Recist / RespChemo_Recist: RECIST
Protocol: Radiological assessment, consisting of abdominal MRI and FDG-PET-CT, was performed before ITPP administration and after the 3-week treatment course. Where possible, radiological re-evaluation was performed after 3–6 cycles of chemotherapy. Radiological responses were evaluated according to the RECIST 1.1 criteria[56] for MRI and EORTC criteria[57] for FDG-PET-CT imaging.
Then first calculate the sum of diameters (DM) and SUV-activities of radiological target lesions before ITPP (sum_pre), after ITPP (sum_post) and after subsequent chemotherapy (sum_chemo) for assessment of morphological RECIST1.1 (diameter) and metabolical EORTC (SUV activiy) responses.
Patient 1 (dropout after only 2 infusions and subsequent death due to rapid oncological progression) is excluded for radiological assessment due to no follow up imaging available.
In a second step, we calculate percent changes (PC) of diameter and SUV activity between before ITPP, after ITPP and after chemotherapy.

EGF = test: Serum angiogenesis marker, multiplex bead-based immunoassay (LEGENDplex); set-up: EGF: unit not given here; settings: for EGF: serum, duplicate wells
ANG2 = test: as above; set-up: ANG2: unit not given here; settings: for ANG2: serum, duplicate wells
[2] = after ITPP monotherapy, 27 patients assessed
[3] = after chemotherapy subsequent to ITPP, 20 patients
[4] = following ITPP treatment, 27 patients
[5] = Patient 25, Cohort 8, PDAC, Day 3 post
[6] = Patient 25, Cohort 8, PDAC, Day 9 post
[7] = Patient 26, Cohort 8, PDAC, Day 3 post
[8] = Patient 26, Cohort 8, PDAC, Day 9 post
[9] = Patient 27, Cohort 8, CCC, Day 3 post
[10] = Patient 27, Cohort 8, CCC, Day 9 post
[11] = Patient 28, Cohort 8, CRLM, Day 3 post
[12] = Patient 28, Cohort 8, CRLM, Day 9 post

Question: Which results are given for `O=P1(O)OC2C3OP(=O)(O)OP(=O)(O)OC3C3OP(=O)(O)OP(=O)(O)OC3C2OP(=O)(O)O1` (centres unmarked) [ITPP, Myo-inositol trispyrophosphate]?
Answer: Median change in target lesion size, RECIST ([1]; CCA, after ITPP): 0.88%; Median change in target lesion size, RECIST ([1]; CCA, after chemotherapy): −18.18%; Median change in target lesion size, RECIST ([1]; CRLM, after ITPP): 6.67%; Median change in target lesion size, RECIST ([1]; CRLM, after chemotherapy): −3.12%; Median change in target lesion size, RECIST ([1]; HCC, after ITPP): 0.81%; Median change in target lesion size, RECIST ([1]; HCC, after chemotherapy): −30.46%; Share of patients with SD (morphological disease stabilization) ([1]; ITPP monotherapy): 52%; Median change in target lesion size, RECIST ([1]; PDAC, after ITPP): 12.16%; Median change in target lesion size, RECIST ([1]; PDAC, after chemotherapy): 0%; Patients with progression (PD), RECIST1.1 [1, 2]: 11; Patients with stable disease (SD), RECIST1.1 [1, 2]: 14; Patients with PD, RECIST [1, 3]: 6; Patients with SD, RECIST [1, 3]: 12; Patients with partial response (PR), RECIST [1, 3]: 2; Share of patients with PR ([1]; after subsequent chemotherapy): 10%; Share of patients with SD ([1]; after subsequent chemotherapy): 60%; RECIST1.1 response after ITPP ([1]; individual patients, cohort 1 (1866 mg/m2)): PD and SD; RECIST1.1 response after chemotherapy ([1]; individual patients, cohort 1, 1866 mg/m2): SD; RECIST1.1 response after ITPP ([1]; individual patients, cohort 2 (3732 mg/m2)): SD and PD; RECIST1.1 response after chemotherapy ([1]; individual patients, cohort 2, 3732 mg/m2): SD; RECIST1.1 response after ITPP ([1]; individual patients, cohort 3 (5600 mg/m2)): PD and SD; RECIST1.1 response after chemotherapy ([1]; individual patients, cohort 3, 5600 mg/m2): PD and SD; RECIST1.1 response after ITPP ([1]; individual patients, cohort 4 (7000 mg/m2)): PD and SD; RECIST1.1 response after chemotherapy ([1]; individual patients, cohort 4, 7000 mg/m2): PR; RECIST1.1 response after ITPP ([1]; individual patients, cohort 5 (8750 mg/m2)): SD and PD; RECIST1.1 response after chemotherapy ([1]; individual patients, cohort 5, 8750 mg/m2): PD; RECIST1.1 response after ITPP ([1]; individual patients, cohort 6 (10500 mg/m2)): PD and SD; RECIST1.1 response after chemotherapy ([1]; individual patients, cohort 6, 10500 mg/m2): PD and PR and SD; RECIST1.1 response after ITPP ([1]; individual patients, cohort 7 (12390 mg/m2)): PD and SD; RECIST1.1 response after chemotherapy ([1]; individual patients, cohort 7, 12390 mg/m2): SD; RECIST1.1 response after ITPP ([1]; individual patients, cohort 8 (14500 mg/m2)): PD and SD; RECIST1.1 response after chemotherapy ([1]; individual patients, cohort 8, 14500 mg/m2): PD and SD; Lesion1_chemo_DM ([1]; individual patients, lesion 1, after subsequent chemotherapy): 131 and 16 and 90 and 54 and 20 and 33 and 23 and 19 and 28 and 67 and 69 and 42 and 31.4 and 10 and 36; Lesion1_post_DM ([1]; individual patients, lesion 1, post ITPP): 113 and 27 and 110 and 305 and 107 and 74 and 26 and 50 and 49 and 25 and 20 and 30 and 70 and 58 and 81 and 43 and 44.6 and 33 and 17 and 12 and 42 and 164; Lesion1_pre_DM ([1]; individual patients, lesion 1, pre ITPP (baseline)): 114 and 27 and 111 and 293 and 106 and 73 and 22 and 26 and 48 and 43 and 49 and 17 and 20 and 21 and 24 and 71 and 50 and 82 and 59 and 43.7 and 32 and 13 and 10 and 38 and 163; Lesion2_chemo_DM ([1]; individual patients, lesion 2, after subsequent chemotherapy): 13 and 23 and 41 and 24 and 25 and 32 and 16 and 12 and 62 and 14 and 47 and 28.9 and 10 and 30 and 40; Lesion2_post_DM ([1]; individual patients, lesion 2, post ITPP): 18 and 26 and 56 and 15 and 17 and 58 and 21 and 25 and 12 and 28 and 14 and 49 and 42 and 39.6 and 16 and 31 and 50 and 13; Lesion2_pre_DM ([1]; individual patients, lesion 2, pre ITPP (baseline)): 17 and 57 and 83 and 13 and 15 and 53 and 26 and 10 and 104 and 24 and 14 and 41 and 25 and 29.7 and 16 and 46; Lesion3_chemo_DM ([1]; individual patients, lesion 3, after subsequent chemotherapy): 39 and 16 and 10 and 9 and 24 and 7 and 32.6 and 8 and 28; Lesion3_post_DM ([1]; individual patients, lesion 3, post ITPP): 32 and 23 and 21 and 10 and 26 and 16 and 45.1 and 30 and 14; Lesion3_pre_DM ([1]; individual patients, lesion 3, pre ITPP (baseline)): 30 and 18 and 20 and 10 and 13 and 66 and 26.6 and 31 and 12; Lesion4_chemo_DM ([1]; individual patients, lesion 4, after subsequent chemotherapy): 21 and 7 and 10 and 12 and 34; Lesion4_post_DM ([1]; individual patients, lesion 4, post ITPP): 17 and 23 and 10 and 15 and 44; Lesion4_pre_DM ([1]; individual patients, lesion 4, pre ITPP (baseline)): 21 and 20 and 10 and 22 and 14 and 38; Lesion5_chemo_DM ([1]; individual patients, lesion 5, after subsequent chemotherapy): 10 and 18 and 9 and 11; Lesion5_post_DM ([1]; individual patients, lesion 5, post ITPP): 16 and 18 and 12; Lesion5_pre_DM ([1]; individual patients, lesion 5, pre ITPP (baseline)): 21 and 15 and 13 and 11 and 14; RespITPP_Recist ([1]; individual patients, morphological response after ITPP monotherapy): PD and SD; RespChemo_Recist ([1]; individual patients, morphological response after subsequent chemotherapy following ITPP): PD and SD and PR; NewLesion_ITPP ([1]; individual patients, new lesion after ITPP monotherapy (Yes/No)): Yes and No; NewLesion_Chemo ([1]; individual patients, new lesion after subsequent chemotherapy following ITPP (Yes/No)): Yes and No; RespITPP_Recist ([1]; response after ITPP, per individual patient, cohort c1, tumor c2): PD and SD; RespChemo_Recist ([1]; response after chemotherapy following ITPP, per individual patient, cohort c1, tumor c2): PD and SD and PR; Share of patients with reduced EGF (EGF; [4]): 85.2%; EGF (EGF; [5]): 16.25; EGF (EGF; [6]): 11.62 and 15.2; EGF (EGF; [7]): 14.41 and 12.95; EGF (EGF; [8]): 9.76 and 9.88; EGF (EGF; [9]): 5.57 and 4.9; EGF (EGF; [10]): 9.82 and 10.17; EGF (EGF; [11]): 2.39 and 3.39; EGF (EGF; [12]): 3.09 and 2.24; Share of patients with reduced ANG2 (ANG2; [4]): 59.3%; ANG2 (ANG2; [5]): 228.25; ANG2 (ANG2; [6]): 251.99 and 267.93; ANG2 (ANG2; [7]): 4.97 and 2.94; ANG2 (ANG2; [8]): 13.32 and 15.98; ANG2 (ANG2; [9]): 207.26 and 180.83; ANG2 (ANG2; [10]): 218.06 and 212.68; ANG2 (ANG2; [11]): 323.31 and 262.92; ANG2 (ANG2; [12]): 200.18 and 179.44
